Assay results from US7432260B2, “Pyrimidine compounds” (Cyclacel Limted, priority 2002, dated 2008).
Where two headings read alike, the source gives them in different places.

Legend:
[1] = tested on: CCRF-CEM; assay: 72-h MTT cytotoxicity assay CCRF-CEM; type: cell-based; conditions: Homo sapiens, Table 5, Leukemia
Method: MTT cytotoxicity assay. […] Standard 72-h MTT (thiazolyl blue; 3-[4,5-dimethylthiazol-2-yl]-2,5-diphenyltetrazolium bromide) assays were performed (Haselsberger, K.; Peterson, D. C.; Thomas, D. G.; Darling, J. L. Anti Cancer Drugs 1996, 7, 331-8; Loveland, B. E.; Johns, T. G.; Mackay, I. R.; Vaillant, F.; Wang, Z. X.; Hertzog, P. J. Biochemistry International 1992, 27, 501-10). In short: cells were seeded into 96-well plates according to doubling time and incubated overnight at 37° C. Test compounds were made up in DMSO and a 1/3 dilution series prepared in 100 μL cell media, added to cells (in triplicates) and incubated for 72 ho at 37° C. MTT was made up as a stock of 5 mg/mL in cell media and filter-sterilised. Media was removed from cells followed by a wash with 200 μL PBS.
MTT solution was then added at 20 μL per well and incubated in the dark at 37° C. for 4 h. MTT solution was removed and cells again washed with 200 μL PBS. MTT dye was solubilised with 200 μL per well of DMSO with agitation.

[2] = tested on: A549; assay: 72-h MTT cytotoxicity assay A549; type: cell-based; conditions: Homo sapiens, A549, 72 h
How it was run: (§1)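 Cells were seeded at densities set by doubling time, left overnight at 37° C, then exposed in triplicate to a 1/3 dilution series of compound (DMSO stock) for 72 h at 37° C. Viability was read by MTT reduction (4 h, dark, 37° C) with formazan dissolved in DMSO.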

[3] = tested on: Saos-2; assay: 72-h MTT cytotoxicity assay Saos-2; type: cell-based; conditions: Homo sapiens, SAOS-2, 72 h
How it was run: as §1

[4] = tested on: HT29; assay: 72-h MTT cytotoxicity assay HT29; type: cell-based; conditions: Homo sapiens, HT-29, 72 h
How it was run: as §1

[5] = biological target: CDK7/cyclin H (Homo sapiens, UniProt P50613); assay: CDK7 assay; type: biochemical
CDK7/cyclin H, sequence (P50613 whole entry): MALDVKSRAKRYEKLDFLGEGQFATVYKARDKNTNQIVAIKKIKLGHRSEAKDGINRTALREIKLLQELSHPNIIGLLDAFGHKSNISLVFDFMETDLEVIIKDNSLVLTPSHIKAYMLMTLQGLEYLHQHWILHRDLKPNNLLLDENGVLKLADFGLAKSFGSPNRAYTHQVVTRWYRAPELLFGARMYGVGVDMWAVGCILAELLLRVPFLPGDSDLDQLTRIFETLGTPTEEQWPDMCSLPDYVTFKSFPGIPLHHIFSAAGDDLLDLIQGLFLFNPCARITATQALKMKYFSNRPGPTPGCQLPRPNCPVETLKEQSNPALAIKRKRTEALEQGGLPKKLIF
How it was run: (§2)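 Radiometric filter-binding format: test compound at varying amounts incubated with CTD peptide (biotinyl-Ahx-(YSPTSPS)4-NH2) and either CDK9/cyclin T1 or CDK7/cyclin H, using 100 μM ATP spiked with 32P, 45 min, 30 °C, pH 7.2. Reactions were stopped on ice, bound to avidin, filtered on P81 plates and scintillation-counted.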

[6] = biological target: GSK-3β (Homo sapiens, UniProt P49841); assay: Kinase assay GSK-3β; type: biochemical
GSK-3β, sequence (P49841 whole entry): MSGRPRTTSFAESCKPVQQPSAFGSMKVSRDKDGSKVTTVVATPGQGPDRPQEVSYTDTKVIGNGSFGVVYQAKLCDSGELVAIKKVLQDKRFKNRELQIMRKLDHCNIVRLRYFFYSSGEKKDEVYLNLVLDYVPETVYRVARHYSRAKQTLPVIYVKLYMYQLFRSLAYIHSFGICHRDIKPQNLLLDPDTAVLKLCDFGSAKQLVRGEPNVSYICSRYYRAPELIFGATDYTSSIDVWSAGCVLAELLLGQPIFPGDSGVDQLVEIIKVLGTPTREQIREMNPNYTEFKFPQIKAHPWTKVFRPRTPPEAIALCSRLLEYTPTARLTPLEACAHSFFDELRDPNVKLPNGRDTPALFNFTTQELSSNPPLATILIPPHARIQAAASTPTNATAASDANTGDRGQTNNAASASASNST
How it was run: (§3)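 Recombinant kinase (2-4 μg) with polypeptide substrate in pH 7.4 MOPS/β-glycerophosphate buffer; started with 15 mM MgCl2 + 100 μM ATP plus [γ-32P]-ATP, incubated at 30° C. Stopped on ice, filtered, washed in orthophosphoric acid; incorporated 32P counted by scintillation.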

[7] = biological target: CDK4/cyclin D1 (Homo sapiens, UniProt P11802); assay: Kinase assay CDK4/cyclin D1; type: biochemical
CDK4/cyclin D1, sequence (P11802 whole entry): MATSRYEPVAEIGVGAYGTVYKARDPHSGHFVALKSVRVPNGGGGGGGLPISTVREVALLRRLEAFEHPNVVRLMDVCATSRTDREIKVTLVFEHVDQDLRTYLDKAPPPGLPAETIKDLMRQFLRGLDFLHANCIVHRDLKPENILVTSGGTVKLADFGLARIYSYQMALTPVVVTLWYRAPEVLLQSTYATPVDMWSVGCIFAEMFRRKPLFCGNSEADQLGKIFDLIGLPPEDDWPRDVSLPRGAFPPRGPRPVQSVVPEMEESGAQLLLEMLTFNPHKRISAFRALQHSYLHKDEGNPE
CDK4/cyclin D1, sequence (P24385 whole entry partner): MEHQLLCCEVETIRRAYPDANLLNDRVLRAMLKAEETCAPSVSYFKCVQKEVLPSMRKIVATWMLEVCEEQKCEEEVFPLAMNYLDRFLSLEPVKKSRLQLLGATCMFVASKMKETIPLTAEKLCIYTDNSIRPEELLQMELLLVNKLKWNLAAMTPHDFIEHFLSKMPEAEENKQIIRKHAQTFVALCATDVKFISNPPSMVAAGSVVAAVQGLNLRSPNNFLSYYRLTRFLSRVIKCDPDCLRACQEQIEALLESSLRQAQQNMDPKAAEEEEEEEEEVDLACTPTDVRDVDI
How it was run: as §3

[8] = biological target: CDK9/cyclin T1 (Homo sapiens, UniProt P50750); assay: CDK9 assay; type: biochemical
CDK9/cyclin T1, sequence (P50750 whole entry): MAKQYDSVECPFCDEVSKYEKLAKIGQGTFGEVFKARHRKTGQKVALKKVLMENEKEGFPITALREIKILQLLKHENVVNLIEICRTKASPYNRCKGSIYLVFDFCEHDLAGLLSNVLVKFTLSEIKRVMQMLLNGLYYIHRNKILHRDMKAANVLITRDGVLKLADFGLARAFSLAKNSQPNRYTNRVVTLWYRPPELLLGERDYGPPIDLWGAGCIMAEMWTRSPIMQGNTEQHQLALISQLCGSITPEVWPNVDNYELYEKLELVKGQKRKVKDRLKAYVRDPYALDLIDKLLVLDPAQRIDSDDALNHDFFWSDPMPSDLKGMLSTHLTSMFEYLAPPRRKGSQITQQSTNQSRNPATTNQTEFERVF
CDK9/cyclin T1, sequence (O60563 whole entry partner): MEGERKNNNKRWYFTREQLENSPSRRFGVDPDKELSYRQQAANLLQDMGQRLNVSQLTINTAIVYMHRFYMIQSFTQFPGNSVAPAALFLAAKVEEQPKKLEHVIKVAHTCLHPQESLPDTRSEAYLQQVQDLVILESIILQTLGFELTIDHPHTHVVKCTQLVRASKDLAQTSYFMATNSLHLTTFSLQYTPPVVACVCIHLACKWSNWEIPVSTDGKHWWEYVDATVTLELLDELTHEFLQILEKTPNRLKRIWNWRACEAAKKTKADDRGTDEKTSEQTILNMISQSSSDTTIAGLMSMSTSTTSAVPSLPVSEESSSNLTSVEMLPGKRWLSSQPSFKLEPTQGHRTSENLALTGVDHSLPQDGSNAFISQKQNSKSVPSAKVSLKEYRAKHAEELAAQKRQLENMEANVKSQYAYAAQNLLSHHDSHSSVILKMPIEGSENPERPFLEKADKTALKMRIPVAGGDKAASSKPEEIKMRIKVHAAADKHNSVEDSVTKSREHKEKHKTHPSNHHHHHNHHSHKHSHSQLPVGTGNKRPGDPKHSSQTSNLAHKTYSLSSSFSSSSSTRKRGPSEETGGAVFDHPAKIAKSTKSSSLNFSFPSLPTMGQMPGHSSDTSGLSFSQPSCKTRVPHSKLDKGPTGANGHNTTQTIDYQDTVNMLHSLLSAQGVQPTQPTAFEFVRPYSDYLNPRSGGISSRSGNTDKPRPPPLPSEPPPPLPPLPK
How it was run: as §2

[9] = biological target: CDK1/cyclin B (Homo sapiens, UniProt P06493); assay: Kinase assay CDK1/cyclin B; type: biochemical
CDK1/cyclin B, sequence (P06493 whole entry): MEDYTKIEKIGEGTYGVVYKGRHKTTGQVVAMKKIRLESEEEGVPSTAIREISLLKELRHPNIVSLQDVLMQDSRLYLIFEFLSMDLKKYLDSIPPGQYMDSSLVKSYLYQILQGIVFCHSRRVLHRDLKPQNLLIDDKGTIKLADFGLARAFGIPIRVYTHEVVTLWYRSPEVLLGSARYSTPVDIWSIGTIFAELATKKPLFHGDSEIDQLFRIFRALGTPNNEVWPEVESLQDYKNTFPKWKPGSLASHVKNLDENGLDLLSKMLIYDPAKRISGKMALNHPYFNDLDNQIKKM
CDK1/cyclin B, sequence (P14635 whole entry partner): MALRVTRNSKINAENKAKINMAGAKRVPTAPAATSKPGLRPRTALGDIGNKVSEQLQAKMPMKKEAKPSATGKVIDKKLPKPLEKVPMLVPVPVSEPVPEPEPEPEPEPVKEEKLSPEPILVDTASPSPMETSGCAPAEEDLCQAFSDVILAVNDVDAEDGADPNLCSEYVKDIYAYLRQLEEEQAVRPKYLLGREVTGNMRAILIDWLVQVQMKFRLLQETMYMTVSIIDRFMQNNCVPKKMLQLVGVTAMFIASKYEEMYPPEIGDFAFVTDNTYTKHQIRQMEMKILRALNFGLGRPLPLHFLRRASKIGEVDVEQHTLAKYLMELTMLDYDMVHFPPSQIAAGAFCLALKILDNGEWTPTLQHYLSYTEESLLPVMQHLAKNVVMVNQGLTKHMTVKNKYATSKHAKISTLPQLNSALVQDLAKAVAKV
How it was run: as §3

[10] = Table 2, read-out: Kinase Inhibition IC50 CDK7 cyclin H
[11] = Table 3 selectivity panel, CDK7/cyclin H/MAT 1 complex, read-out: Kinase specificity IC50 CDK7/H
[12] = Table 2, read-out: Kinase Inhibition IC50 GSK-3β
[13] = Table 3 selectivity panel, glycogen synthase kinase 3β, read-out: Kinase specificity IC50 GSK-3
[14] = Table 2, read-out: Kinase Inhibition IC50 CDK4 cyclin D1
[15] = Table 3 selectivity panel, read-out: Kinase specificity IC50 CDK4/D1
[16] = Table 2, read-out: Kinase Inhibition IC50 CDK9 cyclin T1
[17] = Table 3 selectivity panel, read-out: Kinase specificity IC50 CDK9/T1
[18] = Table 2, read-out: Kinase Inhibition IC50 CDK1 cyclin B
[19] = Table 3 selectivity panel, read-out: Kinase specificity IC50 CDK1/B1

In the case of Cc1nc(N)sc1-c1ccnc(Nc2ccc(N3CCOCC3)cc2)n1 [Compound 1, [4-(2-Amino-4-methyl-thiazol-5-yl)-pyrimidin-2-yl]-(4-morpholin-4-yl-phenyl)-amine], the IC50 [1] is reported as 900 nM, the IC50 ([2]; Table 4) is reported as 2100 nM and the IC50 ([2]; Table 5, Lung) is reported as 1000 nM. It also gave an IC50 ([3]; Table 4) of 1900 nM, an IC50 ([3]; Table 5, Bone osteosarcoma) of 100 nM and an IC50 ([4]; Table 4) of 1700 nM. The IC50 ([4]; Table 5, Colon) was 1100 nM, the IC50 [5, 10] was 30000 nM and the IC50 [5, 11] was 56000 nM.
With CNc1nc(C)c(-c2ccnc(Nc3ccc(N4CCOCC4)cc3)n2)s1 [Compound 3, [4-(2-N-Methylamino-4-methyl-thiazol-5-yl)-pyrimidin-2-yl]-(4-morpholinophenyl)-amine] the IC50 [6, 12] was greater than 100 µM, the IC50 [6, 13] was greater than 100 µM and the IC50 [7, 14] was 1400 nM. For the same molecule, the IC50 [7, 15] was 150 nM, the IC50 ([2]; Table 4) was 3700 nM and the IC50 ([3]; Table 4) was 3100 nM. For the same molecule, the IC50 [8, 16] was 12000 nM, the IC50 [8, 17] was 8500 nM and the IC50 ([4]; Table 4) was 2800 nM. It also gave an IC50 [9, 18] of 71000 nM, an IC50 [9, 19] greater than 100000 nM and an IC50 [5, 10] of 106000 nM. For the same molecule, the IC50 [5, 11] was greater than 100000 nM.
For CCNc1nc(C)c(-c2ccnc(Nc3ccc(N4CCOCC4)cc3)n2)s1 [Compound 4, [4-(2-Ethylamino-4-methyl-thiazol-5-yl)-pyrimidin-2-yl]-(4-morpholin-4-yl-phenyl)-amine], the IC50 [6, 12] was greater than 100 µM, the IC50 [7, 14] was 430 nM and the IC50 ([2]; Table 4) was 770 nM. The IC50 ([3]; Table 4) was 1200 nM, the IC50 [8, 16] was 1800 nM and the IC50 ([4]; Table 4) was 920 nM. For the same molecule, the IC50 [9, 18] was 30000 nM and the IC50 [5, 10] was 12000 nM.
Work on CNc1nc(C)c(-c2ccnc(Nc3ccc(N4CCN(Cc5ccccc5)CC4)cc3)n2)s1 [Compound 11, [4-(4-Benzyl-piperazin-1-yl)-phenyl]-[4-(4-methyl-2-methylamino-thiazol-5-yl)-pyrimidin-2-yl]-amine] yielded an IC50 [6, 12] of 6 µM, an IC50 [6, 13] of 6 µM and an IC50 [1] of 500 nM. For the same molecule, the IC50 [7, 14] was 9.8 nM, the IC50 [7, 15] was 9.8 nM and the IC50 ([2]; Table 4) was 2200 nM. The IC50 ([2]; Table 5, Lung) was 2200 nM, the IC50 ([3]; Table 4) was 3600 nM and the IC50 ([3]; Table 5, Bone osteosarcoma) was 3700 nM. The IC50 [8, 16] was 1100 nM, the IC50 [8, 17] was 1100 nM and the IC50 ([4]; Table 4) was 1600 nM. For the same molecule, the IC50 ([4]; Table 5, Colon) was 1600 nM, the IC50 [9, 18] was 2400 nM and the IC50 [9, 19] was 2400 nM. For the same molecule, the IC50 [5, 10] was 19 nM and the IC50 [5, 11] was 19 nM.
In the case of Cc1nc(NC(=O)[C@H](N)[C@@H](C)O)sc1-c1ccnc(Nc2cccc([N+](=O)[O-])c2)n1 [Compound 15, (2R,3R)-2-Amino-3-hydroxy-N-{4-methyl-5-[2-(3-nitro-phenylamino)-pyrimidin-4-yl]-thiazol-2-yl}-butyramide], the IC50 [6, 12] is reported as 0.61 µM, the IC50 [6, 13] is reported as 0.54 µM and the IC50 [1] is reported as 2600 nM. For the same molecule, the IC50 [7, 14] was 2000 nM, the IC50 [7, 15] was 1600 nM and the IC50 ([2]; Table 4) was 1100 nM. It also gave an IC50 ([2]; Table 5, Lung) of 600 nM, an IC50 ([3]; Table 4) of 1900 nM and an IC50 ([3]; Table 5, Bone osteosarcoma) of 400 nM. For the same molecule, the IC50 [8, 16] was 70 nM, the IC50 [8, 17] was 110 nM and the IC50 ([4]; Table 4) was 1000 nM. The IC50 ([4]; Table 5, Colon) was 500 nM, the IC50 [9, 18] was 5400 nM and the IC50 [9, 19] was 1600 nM. For the same molecule, the IC50 [5, 10] was 340 nM and the IC50 [5, 11] was 390 nM.
Work on CC[C@@H](N)C(=O)Nc1nc(C)c(-c2ccnc(Nc3cccc([N+](=O)[O-])c3)n2)s1 [Compound 16, (2R)-2-Amino-N-{4-methyl-5-[2-(3-nitro-phenylamino)-pyrimidin-4-yl]-thiazol-2-yl}-butyramide] yielded an IC50 [6, 12] of 0.68 µM, an IC50 [6, 13] of 0.68 µM and an IC50 [1] of 1100 nM. The IC50 [7, 14] was 6700 nM, the IC50 [7, 15] was 6700 nM and the IC50 ([2]; Table 4) was 530 nM. For the same molecule, the IC50 ([2]; Table 5, Lung) was 500 nM, the IC50 ([3]; Table 5, Bone osteosarcoma) was 600 nM and the IC50 [8, 16] was 110 nM. For the same molecule, the IC50 [8, 17] was 200 nM, the IC50 ([4]; Table 4) was 290 nM and the IC50 ([4]; Table 5, Colon) was 300 nM. For the same molecule, the IC50 [9, 18] was 2800 nM, the IC50 [9, 19] was 2800 nM and the IC50 [5, 10] was 1100 nM. It also gave an IC50 [5, 11] of 970 nM.
Cc1nc(C)c(-c2ccnc(Nc3ccc(NC(=O)CN4CCCC4)cc3)n2)s1 [Compound 53, N-{4-[4-(2,4-Dimethyl-thiazol-5-yl)-pyrimidin-2-ylamino]-phenyl}-2-pyrrolidin-1-yl-acetamide] showed an IC50 [6, 12] of 23 µM, an IC50 [7, 14] of 40 nM and an IC50 ([2]; Table 4) of 770 nM. The IC50 ([3]; Table 4) was 530 nM, the IC50 [8, 16] was 93 nM and the IC50 ([4]; Table 4) was 950 nM. For the same molecule, the IC50 [9, 18] was 5200 nM and the IC50 [5, 10] was 440 nM.
